Common to all, as to parameters: recommended concentration 1 uM
The target in assay [1] is Caspase-2 (Homo sapiens, UniProt P42575). Description: Selectivity interaction (Eurofins (enzymatic assay)) EUB0002201a CASP2.
Assay [2] concerns the target Caspase-3 (Homo sapiens, UniProt P42574). The assay is described as follows: Selectivity interaction (Eurofins (enzymatic assay)) EUB0002201a CASP3.
Assay [3] addresses T1, Caspase-5 (Homo sapiens, UniProt P51878).
T1 sequence (P51878 whole entry): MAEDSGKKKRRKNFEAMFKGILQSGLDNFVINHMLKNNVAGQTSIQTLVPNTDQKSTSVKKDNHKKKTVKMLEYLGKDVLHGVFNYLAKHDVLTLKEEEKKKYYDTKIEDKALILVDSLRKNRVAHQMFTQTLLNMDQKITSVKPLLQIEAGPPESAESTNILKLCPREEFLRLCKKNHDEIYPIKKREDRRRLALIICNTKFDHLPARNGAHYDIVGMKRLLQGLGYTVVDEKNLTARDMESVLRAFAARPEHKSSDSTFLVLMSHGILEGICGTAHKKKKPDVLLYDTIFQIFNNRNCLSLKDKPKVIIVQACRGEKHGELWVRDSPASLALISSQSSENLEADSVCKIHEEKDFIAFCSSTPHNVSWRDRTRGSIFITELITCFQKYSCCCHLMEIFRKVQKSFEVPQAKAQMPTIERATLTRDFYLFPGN
Description: Selectivity interaction (Eurofins (enzymatic assay)) EUB0002201a CASP5.

The target in assay [4] is Caspase-6 (Homo sapiens, UniProt P55212). Description: Selectivity interaction (Eurofins (enzymatic assay)) EUB0002201a CASP6.
Chain of Caspase-6 (P55212 24-179 limits assumed): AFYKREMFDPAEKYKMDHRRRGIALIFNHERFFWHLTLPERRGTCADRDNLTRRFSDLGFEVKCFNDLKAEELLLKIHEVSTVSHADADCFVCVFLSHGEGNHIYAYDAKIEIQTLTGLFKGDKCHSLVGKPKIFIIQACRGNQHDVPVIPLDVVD
Chain of Caspase-6 (P55212 194-293 limits assumed): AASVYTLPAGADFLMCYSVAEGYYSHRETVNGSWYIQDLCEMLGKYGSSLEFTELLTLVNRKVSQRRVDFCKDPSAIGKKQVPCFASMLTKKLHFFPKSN
In assay [5] the target is T2, Caspase-7 (Homo sapiens, UniProt P55210).
T2 sequence (P55210 whole entry): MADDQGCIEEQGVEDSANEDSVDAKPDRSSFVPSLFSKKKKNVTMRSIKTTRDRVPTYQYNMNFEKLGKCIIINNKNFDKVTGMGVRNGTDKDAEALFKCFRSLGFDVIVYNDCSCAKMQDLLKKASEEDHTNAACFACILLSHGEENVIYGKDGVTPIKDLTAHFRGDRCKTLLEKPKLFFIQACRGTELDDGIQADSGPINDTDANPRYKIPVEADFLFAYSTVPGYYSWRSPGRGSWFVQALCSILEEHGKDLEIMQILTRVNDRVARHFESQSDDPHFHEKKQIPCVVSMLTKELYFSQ
The assay is described as follows: Selectivity interaction (Eurofins (enzymatic assay)) EUB0002201a CASP7.

Assay [6] deals with T3, Caspase-8 (Homo sapiens, UniProt Q14790). Description: Selectivity interaction (Eurofins (enzymatic assay)) EUB0002201a CASP8.
T3 sequence (Q14790 217-374 limits assumed): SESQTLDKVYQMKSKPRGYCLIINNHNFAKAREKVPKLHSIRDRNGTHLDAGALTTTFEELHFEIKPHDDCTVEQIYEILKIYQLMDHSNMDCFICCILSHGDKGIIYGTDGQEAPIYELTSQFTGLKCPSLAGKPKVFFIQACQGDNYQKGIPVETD
T3 sequence (Q14790 385-479 limits assumed): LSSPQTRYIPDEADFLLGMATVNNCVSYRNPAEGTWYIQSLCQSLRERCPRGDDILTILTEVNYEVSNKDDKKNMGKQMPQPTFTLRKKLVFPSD
In assay [7] the target is T4, Caspase-9 (Homo sapiens, UniProt P55211).
T4 sequence (P55211 whole entry): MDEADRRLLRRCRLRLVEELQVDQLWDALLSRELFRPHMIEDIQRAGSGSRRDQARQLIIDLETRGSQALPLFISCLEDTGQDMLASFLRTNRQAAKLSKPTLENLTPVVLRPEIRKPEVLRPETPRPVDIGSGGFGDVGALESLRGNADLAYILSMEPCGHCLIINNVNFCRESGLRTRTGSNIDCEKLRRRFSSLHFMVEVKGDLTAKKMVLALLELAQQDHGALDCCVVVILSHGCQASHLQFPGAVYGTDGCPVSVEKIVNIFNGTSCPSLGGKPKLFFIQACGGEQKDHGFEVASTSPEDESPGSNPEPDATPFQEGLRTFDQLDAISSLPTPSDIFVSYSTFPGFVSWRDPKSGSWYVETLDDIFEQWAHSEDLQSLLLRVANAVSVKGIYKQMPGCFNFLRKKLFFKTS
The assay is described as follows: Selectivity interaction (Eurofins (enzymatic assay)) EUB0002201a CASP9.

The target of assay [8] is T5, Caspase-10 (Homo sapiens, UniProt Q92851).
T5 sequence (Q92851 whole entry): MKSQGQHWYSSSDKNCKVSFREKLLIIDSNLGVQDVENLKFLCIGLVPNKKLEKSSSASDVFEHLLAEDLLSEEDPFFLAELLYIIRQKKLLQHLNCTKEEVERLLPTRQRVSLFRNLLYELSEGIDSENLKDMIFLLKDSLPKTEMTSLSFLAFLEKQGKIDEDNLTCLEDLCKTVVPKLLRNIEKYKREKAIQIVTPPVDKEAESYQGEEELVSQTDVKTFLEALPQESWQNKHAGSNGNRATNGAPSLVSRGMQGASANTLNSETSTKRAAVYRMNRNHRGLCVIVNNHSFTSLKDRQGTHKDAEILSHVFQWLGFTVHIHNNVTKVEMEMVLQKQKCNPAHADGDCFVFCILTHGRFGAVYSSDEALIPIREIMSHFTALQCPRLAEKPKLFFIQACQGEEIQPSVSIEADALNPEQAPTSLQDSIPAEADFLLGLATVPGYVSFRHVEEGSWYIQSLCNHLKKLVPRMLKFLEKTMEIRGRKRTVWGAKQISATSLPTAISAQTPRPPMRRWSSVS
Description: Selectivity interaction (Eurofins (enzymatic assay)) EUB0002201a CASP10.

Assay [9] deals with Poly [ADP-ribose] polymerase 1 (Homo sapiens, UniProt P09874). The assay is described as follows: Selectivity interaction (Enzymatic assay) EUB0002249a PARP1.
Chain of Poly [ADP-ribose] polymerase 1 (P09874 whole entry): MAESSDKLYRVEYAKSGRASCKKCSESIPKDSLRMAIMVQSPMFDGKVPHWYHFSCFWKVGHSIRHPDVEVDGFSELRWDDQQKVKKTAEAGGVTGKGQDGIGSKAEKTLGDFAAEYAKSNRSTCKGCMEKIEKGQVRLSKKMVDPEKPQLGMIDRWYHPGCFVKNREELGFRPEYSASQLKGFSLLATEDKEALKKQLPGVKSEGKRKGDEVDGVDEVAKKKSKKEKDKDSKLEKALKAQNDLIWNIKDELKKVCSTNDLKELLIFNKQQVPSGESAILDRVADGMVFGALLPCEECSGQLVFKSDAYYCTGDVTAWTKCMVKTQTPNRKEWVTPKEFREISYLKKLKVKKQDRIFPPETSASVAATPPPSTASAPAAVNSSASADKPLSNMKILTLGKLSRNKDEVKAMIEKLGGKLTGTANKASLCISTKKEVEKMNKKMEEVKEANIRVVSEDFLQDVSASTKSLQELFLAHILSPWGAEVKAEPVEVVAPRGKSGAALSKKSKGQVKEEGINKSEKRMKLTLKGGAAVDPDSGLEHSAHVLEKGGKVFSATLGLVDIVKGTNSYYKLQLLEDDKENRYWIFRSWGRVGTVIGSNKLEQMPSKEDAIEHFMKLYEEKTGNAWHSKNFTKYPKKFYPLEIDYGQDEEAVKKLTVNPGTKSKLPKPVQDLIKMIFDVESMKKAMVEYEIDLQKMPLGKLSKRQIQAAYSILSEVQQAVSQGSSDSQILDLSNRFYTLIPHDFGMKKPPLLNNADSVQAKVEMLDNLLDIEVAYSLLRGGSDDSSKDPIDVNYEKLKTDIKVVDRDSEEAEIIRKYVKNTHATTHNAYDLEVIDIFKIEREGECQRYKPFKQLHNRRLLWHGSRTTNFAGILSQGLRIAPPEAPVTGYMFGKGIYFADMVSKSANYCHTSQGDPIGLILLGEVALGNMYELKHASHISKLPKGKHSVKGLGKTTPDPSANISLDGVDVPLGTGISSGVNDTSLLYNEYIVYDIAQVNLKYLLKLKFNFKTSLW
Assay [10] deals with Poly [ADP-ribose] polymerase tankyrase-1 (Homo sapiens, UniProt O95271). The assay is described as follows: Selectivity interaction (Enzymatic assay) EUB0002249a TNKS1.
Chain of Poly [ADP-ribose] polymerase tankyrase-1 (O95271 whole entry): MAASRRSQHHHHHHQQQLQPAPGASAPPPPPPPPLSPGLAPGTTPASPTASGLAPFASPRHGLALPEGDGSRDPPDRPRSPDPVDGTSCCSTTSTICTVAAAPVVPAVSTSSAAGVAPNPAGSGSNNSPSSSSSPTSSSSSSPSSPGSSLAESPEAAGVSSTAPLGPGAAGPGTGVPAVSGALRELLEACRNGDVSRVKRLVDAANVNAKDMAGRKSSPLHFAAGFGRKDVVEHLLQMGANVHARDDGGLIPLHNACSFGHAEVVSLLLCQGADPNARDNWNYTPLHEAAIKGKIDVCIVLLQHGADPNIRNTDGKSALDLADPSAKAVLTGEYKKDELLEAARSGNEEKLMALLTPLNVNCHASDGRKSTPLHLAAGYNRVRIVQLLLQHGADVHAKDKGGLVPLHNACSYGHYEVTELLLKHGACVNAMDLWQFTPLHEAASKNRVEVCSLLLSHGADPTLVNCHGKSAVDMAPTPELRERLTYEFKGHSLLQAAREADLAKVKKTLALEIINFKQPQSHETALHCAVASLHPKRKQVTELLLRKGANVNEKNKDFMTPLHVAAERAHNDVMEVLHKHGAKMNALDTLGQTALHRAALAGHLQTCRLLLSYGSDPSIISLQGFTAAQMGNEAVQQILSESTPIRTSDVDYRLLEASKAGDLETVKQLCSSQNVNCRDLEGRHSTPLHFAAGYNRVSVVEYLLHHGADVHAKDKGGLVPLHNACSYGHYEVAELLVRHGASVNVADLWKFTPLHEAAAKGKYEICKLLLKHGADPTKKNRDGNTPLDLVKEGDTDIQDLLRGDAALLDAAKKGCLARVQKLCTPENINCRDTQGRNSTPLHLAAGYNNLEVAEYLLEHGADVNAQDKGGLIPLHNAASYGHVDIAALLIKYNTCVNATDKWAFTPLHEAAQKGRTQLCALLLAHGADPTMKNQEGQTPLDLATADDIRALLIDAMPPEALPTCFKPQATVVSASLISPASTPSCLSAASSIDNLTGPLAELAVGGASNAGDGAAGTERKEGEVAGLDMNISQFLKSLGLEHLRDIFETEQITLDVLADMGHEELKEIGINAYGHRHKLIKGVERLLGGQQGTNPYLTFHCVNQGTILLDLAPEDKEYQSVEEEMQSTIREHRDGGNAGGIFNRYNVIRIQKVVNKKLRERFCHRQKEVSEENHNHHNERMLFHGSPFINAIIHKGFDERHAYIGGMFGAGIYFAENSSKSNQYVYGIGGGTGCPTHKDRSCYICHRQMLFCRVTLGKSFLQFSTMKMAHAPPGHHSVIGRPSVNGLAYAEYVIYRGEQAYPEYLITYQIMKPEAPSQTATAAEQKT
The target in assay [11] is N-lysine methyltransferase SMYD2 (Homo sapiens, UniProt Q9NRG4). Description: Selectivity interaction (Enzymatic assay) EUB0002243aAD SMYD2.
In assay [12] the target is Muscarinic acetylcholine receptor M2 (Homo sapiens) (UniProt P08172). Description: Selectivity interaction (Ricerca selectivity panel) EUB0001125a CHRM2. The note with it: at 1 µM.
Assay [13] concerns the target Alpha-1A adrenergic receptor (Homo sapiens) (UniProt P35348). The assay is described as follows: Selectivity interaction (Ricerca selectivity panel) EUB0001125a ADRA1A. Conditions: at 1 µM.
Assay [14] addresses Alpha-1B adrenergic receptor (Homo sapiens) (UniProt P35368). The assay is described as follows: Selectivity interaction (Ricerca selectivity panel) EUB0001125a ADRA1B. The note with it: at 1 µM.
The target in assay [15] is 5-hydroxytryptamine receptor 2A (Homo sapiens, UniProt P28223). The assay is described as follows: Selectivity interaction (US National Institute of Mental Health's Psychoactive Drug Screen Program Selectivity Panel) EUB0001125a HTR2A.
The target of assay [16] is Alpha-1A adrenergic receptor (Homo sapiens, UniProt P35348). The assay is described as follows: Selectivity interaction (US National Institute of Mental Health's Psychoactive Drug Screen Program Selectivity Panel) EUB0001125a ADRA1A.
Chain of Alpha-1A adrenergic receptor (P35348 whole entry): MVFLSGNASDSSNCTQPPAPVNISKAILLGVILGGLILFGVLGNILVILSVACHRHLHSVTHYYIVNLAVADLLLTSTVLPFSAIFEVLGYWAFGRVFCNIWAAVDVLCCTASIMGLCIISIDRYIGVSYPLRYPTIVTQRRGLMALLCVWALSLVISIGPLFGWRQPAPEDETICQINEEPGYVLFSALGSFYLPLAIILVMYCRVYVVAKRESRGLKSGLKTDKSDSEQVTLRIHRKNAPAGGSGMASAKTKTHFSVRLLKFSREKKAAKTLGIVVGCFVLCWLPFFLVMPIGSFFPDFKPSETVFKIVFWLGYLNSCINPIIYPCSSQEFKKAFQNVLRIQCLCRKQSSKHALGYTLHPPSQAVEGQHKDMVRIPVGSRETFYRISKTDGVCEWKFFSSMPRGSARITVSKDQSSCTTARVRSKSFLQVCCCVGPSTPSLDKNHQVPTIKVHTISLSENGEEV
In assay [17] the target is Alpha-2C adrenergic receptor (Homo sapiens, UniProt P18825). Description: Selectivity interaction (US National Institute of Mental Health's Psychoactive Drug Screen Program Selectivity Panel) EUB0001125a ADRA2C.
Chain of Alpha-2C adrenergic receptor (P18825 whole entry): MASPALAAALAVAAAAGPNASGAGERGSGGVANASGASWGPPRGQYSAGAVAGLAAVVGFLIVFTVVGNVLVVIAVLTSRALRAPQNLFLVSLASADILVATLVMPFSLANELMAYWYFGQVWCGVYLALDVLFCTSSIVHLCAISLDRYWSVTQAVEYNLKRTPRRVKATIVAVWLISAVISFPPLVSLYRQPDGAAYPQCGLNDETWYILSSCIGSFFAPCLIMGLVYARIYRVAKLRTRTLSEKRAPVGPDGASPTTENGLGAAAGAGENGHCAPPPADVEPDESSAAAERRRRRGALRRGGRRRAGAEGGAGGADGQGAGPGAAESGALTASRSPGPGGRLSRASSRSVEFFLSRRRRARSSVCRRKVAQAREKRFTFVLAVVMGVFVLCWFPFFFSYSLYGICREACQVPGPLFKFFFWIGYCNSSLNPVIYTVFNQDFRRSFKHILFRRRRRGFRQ
The target of assay [18] is Muscarinic acetylcholine receptor M1 (Homo sapiens, UniProt P11229). The assay is described as follows: Selectivity interaction (US National Institute of Mental Health's Psychoactive Drug Screen Program Selectivity Panel) EUB0001125a CHRM1.
Chain of Muscarinic acetylcholine receptor M1 (P11229 whole entry): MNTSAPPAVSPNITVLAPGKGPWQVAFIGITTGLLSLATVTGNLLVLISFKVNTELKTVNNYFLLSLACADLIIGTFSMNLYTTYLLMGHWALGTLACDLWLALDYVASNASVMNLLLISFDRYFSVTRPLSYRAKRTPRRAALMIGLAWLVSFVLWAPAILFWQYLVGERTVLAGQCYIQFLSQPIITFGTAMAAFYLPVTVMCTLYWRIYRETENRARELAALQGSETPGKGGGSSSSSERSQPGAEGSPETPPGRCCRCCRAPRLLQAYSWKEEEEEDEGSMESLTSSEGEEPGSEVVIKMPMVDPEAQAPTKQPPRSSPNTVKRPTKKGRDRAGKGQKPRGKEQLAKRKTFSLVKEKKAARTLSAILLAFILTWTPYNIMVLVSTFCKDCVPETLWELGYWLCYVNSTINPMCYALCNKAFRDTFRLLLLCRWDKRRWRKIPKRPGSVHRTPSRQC
Assay [19] has as its target Muscarinic acetylcholine receptor M2 (Homo sapiens, UniProt P08172). Description: Selectivity interaction (US National Institute of Mental Health's Psychoactive Drug Screen Program Selectivity Panel) EUB0001125a CHRM2.
Assay [20] has as its target Muscarinic acetylcholine receptor M4 (Homo sapiens, UniProt P08173). The assay is described as follows: Selectivity interaction (US National Institute of Mental Health's Psychoactive Drug Screen Program Selectivity Panel) EUB0001125a CHRM4.
The target in assay [21] is T2, Caspase-7. The assay is described as follows: (§1) Selectivity interaction (Enzymatic assay) EUB0002178aAD CASP7.
Assay [22] addresses T2, Caspase-7. Described as §1. The source holds these as a separate data set.
Assay [23] addresses T3, Caspase-8. Description: (§2) Selectivity interaction (Enzymatic assay) EUB0002178aAD CASP8.
In assay [24] the target is T4, Caspase-9. Description: (§3) Selectivity interaction (Enzymatic assay) EUB0002178aAD CASP9.
Assay [25] addresses T3, Caspase-8. Described as §2. The source holds these as a separate data set.
The target of assay [26] is T4, Caspase-9. The assay is described as §3. The source holds these as a separate data set.

Where a SMILES comes first, the peptide text is derived from it.

Chain of Caspase-3 (P42574 29-175 limits assumed): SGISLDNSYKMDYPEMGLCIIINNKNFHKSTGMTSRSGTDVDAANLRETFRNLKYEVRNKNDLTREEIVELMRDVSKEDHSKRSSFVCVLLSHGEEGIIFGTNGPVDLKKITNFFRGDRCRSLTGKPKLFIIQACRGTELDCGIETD
Chain of Caspase-3 (P42574 176-277 limits assumed): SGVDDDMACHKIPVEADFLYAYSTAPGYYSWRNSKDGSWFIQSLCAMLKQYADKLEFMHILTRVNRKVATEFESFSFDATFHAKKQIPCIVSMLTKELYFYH
Chain of Alpha-1A adrenergic receptor (Homo sapiens) (P35348 whole entry): as the sequence (P35348 whole entry) above
Chain of Caspase-2 (P42575 170-325 limits assumed): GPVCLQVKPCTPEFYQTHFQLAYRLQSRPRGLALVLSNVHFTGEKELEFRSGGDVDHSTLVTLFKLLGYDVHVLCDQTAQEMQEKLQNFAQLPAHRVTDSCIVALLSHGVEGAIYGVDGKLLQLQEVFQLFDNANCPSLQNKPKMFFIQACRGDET
Chain of Caspase-2 (P42575 334-452 limits assumed): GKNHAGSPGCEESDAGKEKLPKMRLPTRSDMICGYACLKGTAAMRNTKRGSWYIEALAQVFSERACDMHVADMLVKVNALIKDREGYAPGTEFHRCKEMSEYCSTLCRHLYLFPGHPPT

Usually IC50 stands for the concentration at which inhibition is half-maximal. For `CC(=O)N[C@@H](CC(C)C)C(=O)N[C@@H](CCC(=O)O)C(=O)N[C@H](C(=O)N[C@H](C=O)CC(=O)O)C(C)C` (Ac-LEVD-aldehyde), the IC50 in [1] is 1.7 µM; in assay [2] it was 0.057 µM; in assay [3], 0.14 µM; in [4], 0.057 µM; in assay [5] it was 0.024 µM; in assay [6], 0.0033 µM. Also, the IC50 was 0.0021 µM in assay [7] and 0.14 µM in assay [8].

Regarding `NC(=O)c1cccc(NC(=O)CCC(=O)NCCc2cn(CCNS(=O)(=O)c3cccc(C(=O)O)c3)nn2)c1`, the IC50 in assay [9] stood at 11.7 µM; in assay [10] it was 9.04 µM.

As a reminder, the Ki is the dissociation constant of the complex between target and ligand, obtained from inhibition or displacement. Low values mean a stronger hold on the target, high ones a looser hold on the target. As for `CN(C)CCCN(CC[C@H](N)C(=O)O)C[C@H]1O[C@@H](n2cnc3c(N)ncnc32)[C@H](O)[C@@H]1O`, in assay [11], the affinity corresponds to a Ki of 0.345 µM.

`COc1cc2c(NC3CCN(C(C)C)CC3)nc(C3CCCCC3)nc2cc1OCCCN1CCCC1`: the figures for the Inhibition of control in assay [12], in assay [13] and in assay [14] were 64%, 90% and 69%, respectively. Besides, the Ki in [15] amounted to 1.2 µM; in assay [16] it was 0.5 µM; in [17], 0.4 µM; in assay [18] it was 0.37 µM; in [19], 0.51 µM; in assay [20] it was 0.51 µM.

Turning to `CC[C@H](C)[C@H](NC(=O)[C@H](CCC(=O)O)NC(=O)[C@@H](NC(C)=O)C(C)C)C(=O)N[C@H](C=O)CC(=O)O` (Ac-VEID-aldehyde), the IC50 in [21] stood at 0.162 µM; in [22], 0.162 µM; in assay [23], 0.026 µM; in assay [24], 0.002 µM; in assay [25], 0.026 µM; in [26], 0.002 µM.

For the origin of these results see ChEMBL document CHEMBL5715260, “Selectivity Literature for EUbOPEN Chemogenomic Library” (2024).
